For 25 molecules, EC50 results are on record in US20250042916A1 (ACONCAGUA BIO, INC., priority 2023, published 2025).

One may read the EC50 as the concentration at which the effect is half-maximal.

A value given as a limit tells only on which side of the number the result lay.

Chain of human calcitonin receptor (CTR) and RAMP3 (AMY3) in COS-7 cells (P30988 25-474): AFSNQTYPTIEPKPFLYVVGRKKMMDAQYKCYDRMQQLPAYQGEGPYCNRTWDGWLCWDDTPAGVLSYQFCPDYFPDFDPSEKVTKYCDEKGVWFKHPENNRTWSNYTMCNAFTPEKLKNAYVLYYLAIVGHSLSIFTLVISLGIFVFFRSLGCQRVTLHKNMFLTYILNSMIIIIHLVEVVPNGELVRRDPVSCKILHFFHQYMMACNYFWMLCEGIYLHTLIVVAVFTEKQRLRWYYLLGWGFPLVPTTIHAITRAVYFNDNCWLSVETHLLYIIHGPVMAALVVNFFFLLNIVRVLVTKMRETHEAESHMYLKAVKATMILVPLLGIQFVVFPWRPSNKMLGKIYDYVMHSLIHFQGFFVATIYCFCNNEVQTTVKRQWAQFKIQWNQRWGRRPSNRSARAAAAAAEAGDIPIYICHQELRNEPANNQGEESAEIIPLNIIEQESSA
Chain of human calcitonin receptor (CTR) and RAMP3 (AMY3) in COS-7 cells (O60896 24-148): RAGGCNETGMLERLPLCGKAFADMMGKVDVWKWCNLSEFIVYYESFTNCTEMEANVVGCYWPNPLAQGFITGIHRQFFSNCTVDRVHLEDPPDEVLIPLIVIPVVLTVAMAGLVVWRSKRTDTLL

The experiment deals with human calcitonin receptor (CTR) and RAMP3 (AMY3) in COS-7 cells (Homo sapiens, UniProt O60896+P30988). The experiment is described as follows: Amylin Receptor cAMP Assay I. As to conditions: values marked *: Amylin Receptor cAMP Assay I; COS-7/AMY3 cells; read-out: Amylin Receptor cAMP Stimulation Activity: EC50. In kind it is cell-based. The source says:
Amylin Receptor cAMP Assay I
AMYRs are heterodimers of the class B calcitonin (CT) G-protein-coupled receptor (CTR) and receptor activity-modifying proteins (RAMPs). All three RAMPs can interact with the CTR and form AMY1, AMY2, AMY3 with RAMP1, RAMP2 and RAMP3, respectively. Like other class B1 GPCRs, the CT receptor family is canonically coupled to Gs-mediated cAMP production, and measurement of cAMP accumulation has been the primary assay used to determine peptide selectivity and potency.
To optimize functional activity directed toward Gas coupling, COS-7 cells were stably transfected with human calcitonin receptor (CTR) and RAMP3, simultaneously. 100× concentration of compound working solutions were prepared (Agilent Technologies Bravo) with 4-fold serial dilution in 384-well Echo LDV plate (Labcyte, Cat #LP-0200). 100 nL/well 100× concentration of compound working solutions were moved to 384-well white low volume plate (Greiner, Cat #784075) using Labcyte ECHO550. 1×10^5 cells/mL COS-7/CTR or COS-7/AMY3 (HD Biosciences) cell suspensions prepared with assay buffer [DPBS containing 0.5 mM IBMX (Sigma, Cat #15879) and 0.1% BSA (GENVIEW, Cat #FA016-100 g)], 10 μL cell suspensions were added to each well of previous generated assay plate which already contains 100 nL compound at 100× concentration using ThermoFisher Multidrop Combi (1000 cells/well). Seal the plate and incubate at 37° C. with 5% CO2 for 30 min.
After incubation, the cAMP assay signal was generated using cAMP Hi-range Kit (Cisbio). 5 μL cAMP-d2 working solution was added to each well, followed by 5 μL Anti-cAMP antibody-cryptate working solution which was added to each well using ThermoFisher Multidrop Combi. The samples were then incubated at room temperature for 1 hour protected from light. the fluorescence was read at 665 and 615 nm with Reader PerkinElmer EnVision.
Turning to `Cc1nnc(-c2c(CC3CC3(F)F)nc(CC(C)C)c(C(N)=O)c2-c2ccc(C(=O)NCc3ccc(F)c(F)c3)s2)o1` (stereo not shown) [Compound 192, 4-(5-((3,4-difluorobenzyl)carbamoyl)thiophen-2-yl)-6-((2,2-difluorocyclopropyl)methyl)-2-isobutyl-5-(5-methyl-1,3,4-oxadiazol-2-yl)nicotinamide], the EC50 is > 1000 nM.

As for `CCc1nc(CC(C)C)c(C(N)=O)c(-c2ccc(C(=O)NCc3ccc(F)c(F)c3)cc2)c1-c1nnc(C)o1` [Compound 199, 4-(4-((3,4-difluorobenzyl)carbamoyl)phenyl)-6-ethyl-2-isobutyl-5-(5-methyl-1,3,4-oxadiazol-2-yl)nicotinamide], the EC50 was > 1000 nM. Under `Cc1nnc(-c2c(CCc3ccc(F)cc3)nc(CC(C)C)c(C(N)=O)c2-c2cc3cccc(NCc4ccc(F)c(F)c4)c3s2)o1` [Compound 136, 4-(7-((3,4-difluorobenzyl)amino)benzo[b]thiophen-2-yl)-6-(4-fluorophenethyl)-2-isobutyl-5-(5-methyl-1,3,4-oxadiazol-2-yl)nicotinamide] stands 6.7 nM; under `Cc1nnc(-c2c(CCc3ccc(F)cc3)nc(CC(C)C)c(C(N)=O)c2-c2cc3ccnc(N[C@@H]4CCc5ncccc54)c3s2)o1` [Compound 161], 13 nM. Under `Cc1nnc(-c2c(CCc3ccc(F)cc3)nc(CC(C)C)c(C(N)=O)c2-c2ccc(C(=O)N[C@@H]3CCc4ncccc43)s2)o1` [Compound 123, (R)-4-(5-((6,7-dihydro-5H-cyclopenta[b]pyridin-5-yl)carbamoyl)thiophen-2-yl)-6-(4-fluorophenethyl)-2-isobutyl-5-(5-methyl-1,3,4-oxadiazol-2-yl)nicotinamide] stands 37.2 nM; under `Cc1nnc(-c2c(CCc3ccc(F)cc3)nc(CC(C)C)c(S(C)(=O)=O)c2-c2ccc(C(=O)NCc3ccc(F)c(F)c3)s2)o1` [Compound 155], > 1000 nM. Consider `Cc1nnc(-c2c(CCc3ccc(F)cc3)nc(CC(C)C)c(C(N)=O)c2-c2cc3ccnc(NCc4cccnc4)c3s2)o1` [Compound 201, 6-(4-fluorophenethyl)-2-isobutyl-5-(5-methyl-1,3,4-oxadiazol-2-yl)-4-(7-((pyridin-3-ylmethyl)amino)thieno[2,3-c]pyridin-2-yl)nicotinamide], for which the EC50 is 381 nM. With `Cc1noc(-c2c(CCc3ccc(F)cc3)nc(CC(C)C)c(C(N)=O)c2-c2ccc(C(=O)N[C@@H]3CCc4ccccc43)s2)n1` [Compound 101, N—[(R)-1-indanyl]-5-{5-carbamoyl-2-[2-(p-fluorophenyl)ethyl]-6-isobutyl-3-(3-methyl-1,2,4-oxadiazol-5-yl)-4-pyridyl}-2-thenamide] the figure was 84.7 nM.

Take `Cc1nnc(-c2c(CC3CC(F)(F)C3)nc(CC(C)C)c(C(N)=O)c2-c2ccc(C(=O)NCc3ccc(F)c(F)c3)s2)o1` [Compound 193, 4-(5-((3,4-difluorobenzyl)carbamoyl)thiophen-2-yl)-6-((3,3-difluorocyclobutyl)methyl)-2-isobutyl-5-(5-methyl-1,3,4-oxadiazol-2-yl)nicotinamide]: the EC50 was 3550 nM.

Turning to `Cc1nnc(-c2c(CCc3ccc(F)cc3)nc(CC(C)C)c(C(N)=O)c2-c2ccc(C(=O)NCc3ccc(F)c(F)c3)cc2)o1` [Compound 126, 4-(p-{[(3,4-difluorophenyl)methyl]carbamoyl}phenyl)-6-[2-(p-fluorophenyl)ethyl]-2-isobutyl-5-(5-methyl-1,3,4-oxadiazol-2-yl)nicotinamide], the EC50 is 162 nM. With `Cc1nnc(-c2c(CCc3ccc(F)cc3)nc(CC(C)C)c(C(N)=O)c2-c2cc3ncnc(NCc4ccc(F)c(F)c4)c3s2)o1` [Compound 132, 4-(4-((3,4-difluorobenzyl)amino)thieno[3,2-d]pyrimidin-6-yl)-6-(4-fluorophenethyl)-2-isobutyl-5-(5-methyl-1,3,4-oxadiazol-2-yl)nicotinamide] the figure was 2.5 nM; with `Cc1nnc(-c2c(CC(C)C)nc(CC(C)C)c(C(N)=O)c2-c2ccc(C(=O)NCc3ccc(F)c(F)c3)s2)o1` [Compound 111, 4-(5-((3,4-difluorobenzyl)carbamoyl)thiophen-2-yl)-2,6-diisobutyl-5-(5-methyl-1,3,4-oxadiazol-2-yl)nicotinamide], 650 nM; with `Cc1nnc(-c2c(CCCC(C)C)nc(CC(C)C)c(C(N)=O)c2-c2ccc(C(=O)NCc3ccc(F)c(F)c3)s2)o1` [Compound 108, 4-(5-((3,4-difluorobenzyl)carbamoyl)thiophen-2-yl)-2-isobutyl-5-(5-methyl-1,3,4-oxadiazol-2-yl)-6-(4-methylpentyl)nicotinamide], 70.7 nM. With `Cc1nnc(-c2c(CCc3ccc(F)cc3)nc(CC(C)C)c(C(N)=O)c2-c2cc3cccc(C#N)c3s2)o1` [Compound 138, 4-(7-cyano-1-benzothiophen-2-yl)-6-[2-(p-fluorophenyl)ethyl]-2-isobutyl-5-(5-methyl-1,3,4-oxadiazol-2-yl)nicotinamide] the figure was 2260 nM; with `Cc1cnc(-c2c(CCc3ccc(F)cc3)nc(CC(C)C)c(C(N)=O)c2-c2ccc(C(=O)NCc3ccc(F)c(F)c3)s2)o1` [Compound 150, N-(3,4-difluorophenyl)methyl-5-{5-carbamoyl-2-[2-(p-fluorophenyl)ethyl]-6-isobutyl-3-(5-methyl-1,3-oxazol-2-yl)-4-pyridyl}-2-thenamide], 3.5 nM; with `Cc1nnc(-c2c(CC3(c4ccc(F)cc4)CC3)nc(CC(C)C)c(C(N)=O)c2-c2ccc(C(=O)NCc3ccc(F)c(F)c3)s2)o1` [Compound 172, 4-(5-((3,4-difluorobenzyl)carbamoyl)thiophen-2-yl)-6-((1-(4-fluorophenyl)cyclopropyl)methyl)-2-isobutyl-5-(5-methyl-1,3,4-oxadiazol-2-yl)nicotinamide], 1140 nM.

In the case of `Cc1ccc(CNc2nccc3cc(-c4c(C(N)=O)c(CC(C)C)nc(CCc5ccc(F)cc5)c4-c4nnc(C)o4)sc23)cn1` [Compound 157], the EC50 worked out at 625 nM. With `Cc1nnc(-c2c(CCc3ccc(F)cc3)nc(CC(C)C)c(C(N)=O)c2-c2ccc(CNC(=O)c3ccc(F)c(F)c3)s2)o1` [Compound 141] the figure was 50 nM; with `Cc1nnc(-c2c(CCc3ccc(F)cc3)nc(CC(C)C)c(C(N)=O)c2-c2cc3c(NCc4ccc(F)c(F)c4)nccc3s2)o1` [Compound 133, 4-(4-((3,4-difluorobenzyl)amino)thieno[3,2-c]pyridin-2-yl)-6-(4-fluorophenethyl)-2-isobutyl-5-(5-methyl-1,3,4-oxadiazol-2-yl)nicotinamide], 6.9 nM; with `Cc1nnc(-c2c(COc3ccc(F)cc3)nc(CC(C)C)c(C(N)=O)c2-c2cc3ccnc(N[C@@H]4CCc5ccccc54)c3s2)o1` [Compound 175, (R)-4-(7-((2,3-dihydro-1H-inden-1-yl)amino)thieno[2,3-c]pyridin-2-yl)-6-((4-fluorophenoxy)methyl)-2-isobutyl-5-(5-methyl-1,3,4-oxadiazol-2-yl)nicotinamide], 211 nM. Under `Cc1nnc(-c2c(CC(O)c3ccc(F)cc3)nc(CC(C)C)c(C(N)=O)c2-c2ccc(C(=O)N[C@@H]3CCc4ccccc43)s2)o1` (stereo partly drawn) [Compound 185, 4-(5-(((R)-2,3-dihydro-1H-inden-1-yl)carbamoyl)thiophen-2-yl)-6-(2-(4-fluorophenyl)-2-hydroxyethyl)-2-isobutyl-5-(5-methyl-1,3,4-oxadiazol-2-yl)nicotinamide] stands 507 nM; under `Cc1nnc(-c2c(C3CC3c3ccc(F)cc3)nc(CC(C)C)c(C(N)=O)c2-c2ccc(C(=O)NCc3ccc(F)c(F)c3)s2)o1` (stereo not shown) [Compound 178, 4-(5-((3,4-difluorobenzyl)carbamoyl)thiophen-2-yl)-6-(2-(4-fluorophenyl)cyclopropyl)-2-isobutyl-5-(5-methyl-1,3,4-oxadiazol-2-yl)nicotinamide], 112 nM.

With `Cc1nnc(-c2c(C34CC(C(F)(F)F)(C3)C4)nc(CC(C)C)c(C(N)=O)c2-c2ccc(C(=O)NCc3ccc(F)c(F)c3)s2)o1` [Compound 194, 4-(5-((3,4-difluorobenzyl)carbamoyl)thiophen-2-yl)-2-isobutyl-5-(5-methyl-1,3,4-oxadiazol-2-yl)-6-(3-(trifluoromethyl)bicyclo[1.1.1]pentan-1-yl)nicotinamide], the EC50 stood at 3400 nM.

For `Cc1nnc(-c2c(CCc3ccc(F)cc3)nc(NC(C)C)c(C(N)=O)c2-c2ccc(C(=O)NCc3ccc(F)c(F)c3)s2)o1` [Compound 168, 4-(5-((3,4-difluorobenzyl)carbamoyl)thiophen-2-yl)-6-(4-fluorophenethyl)-2-(isopropylamino)-5-(5-methyl-1,3,4-oxadiazol-2-yl)nicotinamide], the EC50 was found to be 540 nM.

For the molecule `Cc1nnc(-c2c(CCc3ccc(F)cc3)nc(CC(C)C)c(C(N)=O)c2-c2ccc3c(NCc4ccc(F)c(F)c4)nccc3c2)o1` [Compound 162], the EC50 amounted to 74 nM.
